Data on 27 compounds can be found in patent US9150569B2, “Nitrogen-containing heterocyclic compound having inhibitory effect on production of kynurenine” (KYOWA HAKKO KIRIN CO., LTD., priority 2010, dated 2015).

One may read the inhibition as the relative decrease from the control value, in per cent.

The subject of the experiment is production of kynurenine in KATO-III cells. Kind of experiment: Inhibitory activity on the production of kynurenine (IFN-γ-treated KATO-III cells, kynurenine in the culture medium quantified by absorbance at 480 nm). In kind it is cell-based. To be noted: test compound at 10 μmol/L, human gastric cancer cell line KATO-III, 96 hours, read-out: inhibition rate (production of kynurenine). Here is the method: This assay was performed by a modification of the method described in J. Biol. Chem., vol. 263, pp. 2041-2048 (1988). For culture of the human gastric cancer cell line KATO-III, RPMI 1640 (GIBCO, 11875) supplemented with 10 volt FBS (GIBCO, 10091-148, lot. 665285) was used. One μL of a test substance in a DMSO solution was diluted with 199 μL of the culture medium and placed in wells of a 384-well plate (10 μL/well). Next, IFN-γ (Sigma, 1-3265) was added to the culture medium to a concentration of 31.25 ng/mL, and KATO-III cells were suspended at 50,000 cells/mL in the culture medium. Forty μL of the suspension was added to each well (2,000 cells/well) and incubated under a 5% CO2 atmosphere at 37° C. for 96 hours. The final concentration of DMSO was limited to 0.1 volt or less so that DMSO itself may not affect the kynurenine concentration measured by this assay. After the incubation, 10 μL of a 30 w/vt aqueous trichloroacetic acid solution was added to each well, and incubation was performed at 65° C. for 30 minutes. The plate was centrifuged at 2,500×g for 5 minutes and 15μL of the supernatant in each well was transferred into another 384-well plate. To the transferred supernatant, 15 μL of a 2 w/vt solution of p-dimethylaminobenzaldehyde in acetic acid was added, incubation was performed at 65° C. for 20 minutes and the absorbance was measured at 480 nm.
Sample: the absorbance value of the well to which a DMSO solution containing a test substance was added and in which the cells were treated with IFN-γ.
Blank: the absorbance value of the well to which DMSO not containing a test substance was added and in which the cells were treated with IFN-γ.
Control: the absorbance value of the well to which DMSO not containing a test substance was added and in which the cells were not treated with IFN-γ.
In this assay, expression of IDO in KATO-III cells is induced by IFN-γ treatment and kynurenine in the culture medium is quantified. The kynurenine concentration in a culture medium is known to increase in proportion to the enzymatic activity of intracellular IDO (for example, J. Biol. Chem., vol. 263, pp. 2041-2048 ([…])). […] The production of kynurenine is known to be inhibited by IDO inhibitors (for example, J. Clin. Invest., vol. 117, No. 5, pp. 1147-1154 […]), and thus it is speculated that Compounds (I) also have an inhibitory effect on IDO.
Consider `CCCS(=O)(=O)Nc1nc2ccccc2nc1OC(c1cccnc1)C(F)F` (stereo not drawn) [Compound 17, N-(3-(2,2-difluoro-1-(pyridin-3-yl)ethoxy)quinoxalin-2-yl) propane-1-sulfonamide], for which the inhibition at 10 µM was no less than 80%. For the compound `CCCS(=O)(=O)Nc1nc2cc(C#N)ccc2nc1OC(c1cccnc1)C(F)(F)F` (stereo not drawn) [Compound 78, N-(7-cyano-3-(2,2,2-trifluoro-1-(pyridin-3-yl)ethoxy)quinoxalin-2-yl)propane-1-sulfonamide], the inhibition at 10 µM is no less than 80%. In the case of `CCCS(=O)(=O)Nc1nc2ccccc2nc1OC(c1ccc(-c2noc(C)n2)nc1)C(F)(F)F` (stereo not drawn) [Compound 66, N-(3-(2,2,2-trifluoro-1-(6-(5-methyl-1,2,4-oxadiazol-3-yl)pyridin-3-yl)ethoxy)quinoxalin-2-yl)propane-1-sulfonamide], the inhibition at 10 µM is no less than 80%. Consider `COCCS(=O)(=O)Nc1nc2ccccc2nc1OC(c1ccnc(C(C)=O)c1)C(F)(F)F` (stereo not drawn) [Compound 72, N-(3-(1-(2-acetylpyridin-4-yl)-2,2,2-trifluoroethoxy)quinoxalin-2-yl)-2-methoxyethanesulfonamide], for which the inhibition at 10 µM was no less than 80%.

In the case of `CCCS(=O)(=O)Nc1nc2ccccc2nc1OC(CC)c1cccnc1` (stereo not drawn) [Compound 15, N-(3-(1-(pyridin-3-yl)propoxy)quinoxalin-2-yl)propane-1-sulfonamide], the inhibition at 10 µM was no less than 80%. Regarding `CCCCC(Oc1nc2ccccc2nc1NS(=O)(=O)CCC)c1cccnc1` (stereo not drawn) [Compound 11, N-(3-(1-(pyridin-3-yl)pentyloxy)quinoxalin-2-yl)propane-1-sulfonamide], the inhibition at 10 µM was no less than 80%.

For the compound `CCCS(=O)(=O)Nc1nc2ccccc2nc1OC(c1ccccc1)c1ccc[n+]([O-])c1` (stereo not drawn) [Compound 24, 3-(phenyl(3-(propylsulfonamido)quinoxalin-2-yloxy)methyl)pyridine 1-oxide], the inhibition at 10 µM is no less than 80%.

As for `COCCS(=O)(=O)Nc1nc2ccccc2nc1OC(c1cnc(C(C)=O)s1)C(F)(F)F` (stereo not drawn) [Compound 74, N-(3-(1-(2-acetylthiazol-5-yl)-2,2,2-trifluoroethoxy)quinoxalin-2-yl)-2-methoxyethanesulfonamide], the inhibition at 10 µM is no less than 80%. On to `CCCC(Oc1nc2ccccc2nc1NS(=O)(=O)CCC)c1ccc[n+]([O-])c1` (stereo not drawn) [Compound 22, 3-(1-(3-(propylsulfonamido)quinoxalin-2-yloxy)butyl)pyridine 1-oxide], for which the inhibition at 10 µM was no less than 80%. On to `CCCS(=O)(=O)Nc1nc2ccccc2nc1OC(c1ccc[n+]([O-])c1)C1CC1` (stereo not drawn) [Compound 6, 3-(cyclopropyl(3-(propylsulfonamido)quinoxalin-2-yloxy)methyl)pyridine 1-oxide], for which the inhibition at 10 µM is no less than 80%. In the case of `CCCS(=O)(=O)Nc1nc2ccccc2nc1OC(c1ccc[n+]([O-])c1)C(C)(C)F` (stereo not drawn) [Compound 8, 3-(2-fluoro-2-methyl-1-(3-(propylsulfonamido)quinoxalin-2-yloxy)propyl)pyridine 1-oxide], the inhibition at 10 µM was no less than 80%. Take `CCCCS(=O)(=O)Nc1nc2ccccc2nc1OC(c1ccnc(C#N)c1)C(F)(F)F` (stereo not drawn) [Compound 52, N-(3-(1-(2-cyanopyridin-4-yl)-2,2,2-trifluoroethoxy)quinoxalin-2-yl)butane-1-sulfonamide]: the inhibition at 10 µM is no less than 80%.

For the compound `O=S(=O)(CC1CC1)Nc1nc2ccccc2nc1OC(c1ccncc1)C(F)(F)F` (stereo not drawn) [Compound 50, 1-cyclopropyl-N-(3-(2,2,2-trifluoro-1-(pyridin-4-yl)ethoxy)quinoxalin-2-yl)methanesulfonamide], the inhibition at 10 µM was no less than 80%. For `CCCS(=O)(=O)Nc1nc2ccccc2nc1OC(c1ccc(-c2cnco2)nc1)C(F)(F)F` (stereo not drawn) [Compound 65, N-(3-(2,2,2-trifluoro-1-(6-(oxazol-5-yl)pyridin-3-yl)ethoxy)quinoxalin-2-yl)propane-1-sulfonamide] the value was no less than 80%. Turning to `CCCS(=O)(=O)Nc1nc2ccccc2nc1OC(c1ccncc1)C(F)(F)F` (stereo not drawn) [Compound 42, N-(3-(2,2,2-trifluoro-1-(pyridin-4-yl)ethoxy)quinoxalin-2-yl)propane-1-sulfonamide], the inhibition at 10 µM was no less than 80%. For `CCCCS(=O)(=O)Nc1nc2ccccc2nc1OC(c1ccc2nccn2c1)C(F)(F)F` (stereo not drawn) [Compound 28, N-(3-(2,2,2-trifluoro-1-(imidazo[1,2-a]pyridin-6-yl)ethoxy)quinoxalin-2-yl)butane-1-sulfonamide] the value was no less than 80%; for `CCCS(=O)(=O)Nc1nc2ccccc2nc1OC(c1cc[n+]([O-])cc1)C(F)(F)F` (stereo not drawn) [Compound 43, 4-(2,2,2-trifluoro-1-(3-(propylsulfonamido)quinoxalin-2-yloxy)ethyl)pyridine 1-oxide], no less than 80%. For `CCCS(=O)(=O)Nc1nc2ccccc2nc1OC(c1ccnc(N)c1)C(F)(F)F` (stereo not drawn) [Compound 45, N-(3-(1-(2-aminopyridin-4-yl)-2,2,2-trifluoroethoxy)quinoxalin-2-yl)propane-1-sulfonamide], the inhibition at 10 µM is no less than 80%. For `CCCS(=O)(=O)Nc1nc2ccccc2nc1OC(c1cccnc1)C(C)(C)F` (stereo not drawn) [Compound 7, N-(3-(2-fluoro-2-methyl-1-(pyridin-3-yl)propoxy)quinoxalin-2-yl)propane-1-sulfonamide], the inhibition at 10 µM was no less than 80%. As to `CCCS(=O)(=O)Nc1nc2ccccc2nc1OC(c1cccnc1)C1(C)CC1` (stereo not drawn) [Compound 13, N-(3-((1-methylcyclopropyl)(pyridin-3-yl)methoxy)quinoxalin-2-yl)propane-1-sulfonamide], the inhibition at 10 µM is no less than 80%. As for `CCCS(=O)(=O)Nc1nc2ccccc2nc1OC(c1ccc2nccn2c1)C(F)(F)F` (stereo not drawn) [Compound 27, N-(3-(2,2,2-trifluoro-1-(imidazo[1,2-a]pyridin-6-yl)ethoxy)quinoxalin-2-yl)propane-1-sulfonamide], the inhibition at 10 µM is no less than 80%. Regarding `CCCS(=O)(=O)Nc1nc2ccccc2nc1OC(c1ccccc1)c1cccnc1` (stereo not drawn) [Compound 23, N-(3-(phenyl(pyridin-3-yl)methoxy)quinoxalin-2-yl)propane-1-sulfonamide], the inhibition at 10 µM is no less than 80%. On to `CC(C)CS(=O)(=O)Nc1nc2ccccc2nc1OC(c1ccc2nccn2c1)C(F)(F)F` (stereo not drawn) [Compound 29, 2-methyl-N-(3-(2,2,2-trifluoro-1-(imidazo[1,2-a]pyridin-6-yl)ethoxy)quinoxalin-2-yl)propane-1-sulfonamide], for which the inhibition at 10 µM is no less than 80%.

Regarding `CCCS(=O)(=O)Nc1nc2ccccc2nc1OC(c1ccc[n+]([O-])c1)C(C)(C)C` (stereo not drawn) [Compound 4, 3-(2,2-dimethyl-1-(3-(propylsulfonamido)quinoxalin-2-yloxy)propyl)pyridine 1-oxide], the inhibition at 10 µM was no less than 80%.

For the compound `CCCCS(=O)(=O)Nc1nc2ccccc2nc1OC(c1ccc(-c2cnn(C)c2)nc1)C(F)(F)F` (stereo not drawn) [Compound 33, N-(3-(2,2,2-trifluoro-1-(6-(1-methyl-1H-pyrazol-4-yl)pyridin-3-yl)ethoxy)quinoxalin-2-yl)butane-1-sulfonamide], the inhibition at 10 µM was no less than 80%. For `CCCS(=O)(=O)Nc1nc2ccccc2nc1OC(c1ccn2cc(C)nc2c1)C(F)(F)F` (stereo not drawn) [Compound 53, N-(3-(2,2,2-trifluoro-1-(2-methylimidazo[1,2-a]pyridin-7-yl)ethoxy)quinoxalin-2-yl)propane-1-sulfonamide] the value was no less than 80%.

Turning to `CCCS(=O)(=O)Nc1nc2ccccc2nc1OC(c1cnc(SC)nc1)C(F)(F)F` (stereo not drawn) [Compound 55, N-(3-(2,2,2-trifluoro-1-(2-(methylthio)pyrimidin-5-yl)ethoxy)quinoxalin-2-yl)propane-1-sulfonamide], the inhibition at 10 µM is no less than 80%.
